Assay results reported in US20200069552A1, “COSMETIC AND/OR DERMATOLOGICAL COMPOSITION, AND USES THEREOF IN THE COSMETIC FIELD AND IN THE ADJUVANT TREATMENT OF DERMATOLOGICAL PATHOLOGIES” (ISTITUTO GANASSINI S.P.A. DI RICERCHE BIOCHIMICHE, priority 2017, published 2020).

Experiment: Viscosity at 25° C. with a Brookfield viscometer DV-I
Type: physicochemical

CC(=O)Oc1c(C)c(C)c2c(c1C)CCC(C)(CCC[C@H](C)CCC[C@H](C)CCCC(C)C)O2 (some centres unmarked) [Comp A, Vitamin E acetate]
viscosity, in words (25° C.): extremely fluid | Viscosity at 25° C. (Rotor G = 2, 10 rpm): 3200 cP
